Measurements taken from patent US11739090B2, “Substituted pyrazlo[3,4-c]pyridines as selective BTK kinase inhibitors” (JUMBO DRUG BANK CO., LTD., priority 2019, dated 2023).

What was measured:
Format in all cases: biochemical
[1] = biological target: BTK (Homo sapiens (Human), UniProt Q06187); experiment: BTK kinase test (33P-ATP filter binding); conditions: final ATP 5 μM
Protocol: Experimental Example 1: BTK Kinase Test […]
(§1) buffer conditions: 20 mM HEPES (pH 7.5), 10 mM MgCl2, 1 mM EGTA, 0.02% Brij35, 0.02 mg/mL BSA, 0.1 mm Na3VO4, 2 mm DTT, 1% DMSO.
(§2) 2.1. Preparing an indicator substrate in a freshly prepared reaction buffer
(§3) 2.2. Delivering the desired cofactor to the above substrate solution
(§4) 2.3. Delivering the indicated kinase to the substrate solution and gently mixing same
(§5) 2.4. Delivering the compounds in DMSO to the kinase reaction mixture using acoustic technology (Echo550)
2.5. Initiating the reaction (final concentration of ATP: 5 μM) by delivering ^33P-ATP (final specific activity: 0.01 μci/μL) to the reaction mixture
(§6) 2.6. Incubating the kinase reaction at room temperature for 120 minutes
(§7) 2.7. Recording the reaction on P81 ion exchange paper (Whatman #3698-915)
(§8) 2.8. Washing the filter widely with 0.75% phosphoric acid
2.9. Measuring the radioactive phosphorylated substrate remaining on the filter paper. […]
the kinase activity data is expressed as the percentage of the remaining kinase activity in a test sample compared to a reaction with a carrier (dimethyl sulfoxide), and IC50 values and curve fitting are obtained using Prism4 software (GraphPad).

[2] = biological target: EGFR (Homo sapiens (Human), UniProt P00533); experiment: EGFR kinase test (33P-ATP filter binding); conditions: for The ratio of the activities of EGFR and BTK: EGFR IC50 / BTK IC50 (first figure of the cell); for IC50: final ATP 2 μM, 120 minutes at room temperature
Protocol: (§9) Experimental Example 2: EGFR, ITK and TEC Kinase Test
as §1, §2, §3, §4, §5
(§10) 2.5. Initiating the reaction (final concentration of ATP: 2 μM, 5 μM and 5 μM respectively) by delivering ^33P-ATP (final specific activity: 0.01 μci/μL) to the reaction mixture
as §6, §7, §8
(§11) 2.9. Measuring the radioactive phosphorylated substrate remaining on the filter paper.
(§12) 3. Data analysis: the kinase activity data is expressed as the percentage of the remaining kinase activity in a test sample compared to a reaction with a carrier (dimethyl sulfoxide), and IC50 values and curve fitting are obtained using Prism4 software (GraphPad).

[3] = biological target: ITK (Homo sapiens (Human), UniProt Q08881); experiment: ITK kinase test (33P-ATP filter binding); conditions: for The ratio of the activities of ITK and BTK: ITK IC50 / BTK IC50 (second figure of the cell); for IC50: final ATP 5 μM
Protocol: as §9, §1, §2, §3, §4, §5, §10, §6, §7, §8, §11, §12

[4] = biological target: TEC (Homo sapiens (Human), UniProt P42680); experiment: TEC kinase test (33P-ATP filter binding); conditions: for The ratio of the activities of TEC and BTK: TEC IC50 / BTK IC50 (third figure of the cell); for IC50: final ATP 5 μM, 120 minutes at room temperature
Protocol: as §9, §1, §2, §3, §4, §5, §10, §6, §7, §8, §11, §12

[5] = Table 1, 120 minutes at room temperature

Sequence of BTK (Q06187 whole entry): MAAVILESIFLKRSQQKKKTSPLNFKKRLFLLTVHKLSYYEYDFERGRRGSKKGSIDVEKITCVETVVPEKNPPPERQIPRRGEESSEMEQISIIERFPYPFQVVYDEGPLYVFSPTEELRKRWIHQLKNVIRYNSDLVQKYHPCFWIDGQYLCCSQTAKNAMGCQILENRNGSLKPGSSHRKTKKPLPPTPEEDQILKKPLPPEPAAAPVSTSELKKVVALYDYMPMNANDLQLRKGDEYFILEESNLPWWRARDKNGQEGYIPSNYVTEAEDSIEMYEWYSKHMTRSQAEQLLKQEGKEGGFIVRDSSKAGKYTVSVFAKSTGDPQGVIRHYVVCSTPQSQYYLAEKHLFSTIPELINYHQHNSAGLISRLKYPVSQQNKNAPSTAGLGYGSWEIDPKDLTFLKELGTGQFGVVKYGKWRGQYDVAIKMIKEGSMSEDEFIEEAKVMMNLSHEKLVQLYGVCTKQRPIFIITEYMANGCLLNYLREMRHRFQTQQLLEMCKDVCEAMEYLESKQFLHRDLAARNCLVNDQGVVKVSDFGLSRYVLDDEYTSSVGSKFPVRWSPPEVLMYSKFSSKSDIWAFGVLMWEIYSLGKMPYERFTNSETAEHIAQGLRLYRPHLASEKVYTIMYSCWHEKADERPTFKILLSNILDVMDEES
Sequence of ITK (Q08881 whole entry): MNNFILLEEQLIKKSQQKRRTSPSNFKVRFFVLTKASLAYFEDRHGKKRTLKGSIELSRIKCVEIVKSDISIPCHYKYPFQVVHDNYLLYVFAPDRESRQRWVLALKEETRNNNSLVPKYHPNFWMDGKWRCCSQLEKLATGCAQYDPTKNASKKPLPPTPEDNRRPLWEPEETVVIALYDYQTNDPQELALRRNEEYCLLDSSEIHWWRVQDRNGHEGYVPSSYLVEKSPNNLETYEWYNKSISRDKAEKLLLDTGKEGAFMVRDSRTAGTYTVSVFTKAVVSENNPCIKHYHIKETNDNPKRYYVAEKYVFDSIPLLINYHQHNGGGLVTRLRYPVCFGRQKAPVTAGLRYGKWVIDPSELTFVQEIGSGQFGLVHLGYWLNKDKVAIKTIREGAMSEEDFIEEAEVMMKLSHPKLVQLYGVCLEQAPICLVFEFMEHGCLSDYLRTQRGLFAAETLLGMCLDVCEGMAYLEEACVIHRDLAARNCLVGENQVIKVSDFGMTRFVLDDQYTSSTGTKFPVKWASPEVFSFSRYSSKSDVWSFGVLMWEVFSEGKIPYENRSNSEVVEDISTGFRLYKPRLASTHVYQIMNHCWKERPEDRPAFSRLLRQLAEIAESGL
Sequence of TEC (P42680 whole entry): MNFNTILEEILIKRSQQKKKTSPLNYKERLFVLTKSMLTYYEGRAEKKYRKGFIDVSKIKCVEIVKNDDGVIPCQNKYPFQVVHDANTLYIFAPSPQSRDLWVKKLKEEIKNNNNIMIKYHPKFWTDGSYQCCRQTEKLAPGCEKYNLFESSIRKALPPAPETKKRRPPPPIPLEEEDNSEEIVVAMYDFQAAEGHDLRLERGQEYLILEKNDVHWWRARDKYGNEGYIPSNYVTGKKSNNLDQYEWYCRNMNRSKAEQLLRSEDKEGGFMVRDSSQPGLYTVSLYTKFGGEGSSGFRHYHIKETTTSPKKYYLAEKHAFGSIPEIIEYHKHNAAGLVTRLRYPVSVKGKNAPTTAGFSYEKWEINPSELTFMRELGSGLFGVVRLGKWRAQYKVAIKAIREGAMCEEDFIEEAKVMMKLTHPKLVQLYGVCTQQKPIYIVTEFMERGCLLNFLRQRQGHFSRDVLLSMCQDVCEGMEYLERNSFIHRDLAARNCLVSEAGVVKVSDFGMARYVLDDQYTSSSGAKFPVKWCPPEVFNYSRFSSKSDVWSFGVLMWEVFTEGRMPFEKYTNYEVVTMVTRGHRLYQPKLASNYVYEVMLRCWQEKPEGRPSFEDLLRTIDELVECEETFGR
Sequence of EGFR (P00533 25-1210): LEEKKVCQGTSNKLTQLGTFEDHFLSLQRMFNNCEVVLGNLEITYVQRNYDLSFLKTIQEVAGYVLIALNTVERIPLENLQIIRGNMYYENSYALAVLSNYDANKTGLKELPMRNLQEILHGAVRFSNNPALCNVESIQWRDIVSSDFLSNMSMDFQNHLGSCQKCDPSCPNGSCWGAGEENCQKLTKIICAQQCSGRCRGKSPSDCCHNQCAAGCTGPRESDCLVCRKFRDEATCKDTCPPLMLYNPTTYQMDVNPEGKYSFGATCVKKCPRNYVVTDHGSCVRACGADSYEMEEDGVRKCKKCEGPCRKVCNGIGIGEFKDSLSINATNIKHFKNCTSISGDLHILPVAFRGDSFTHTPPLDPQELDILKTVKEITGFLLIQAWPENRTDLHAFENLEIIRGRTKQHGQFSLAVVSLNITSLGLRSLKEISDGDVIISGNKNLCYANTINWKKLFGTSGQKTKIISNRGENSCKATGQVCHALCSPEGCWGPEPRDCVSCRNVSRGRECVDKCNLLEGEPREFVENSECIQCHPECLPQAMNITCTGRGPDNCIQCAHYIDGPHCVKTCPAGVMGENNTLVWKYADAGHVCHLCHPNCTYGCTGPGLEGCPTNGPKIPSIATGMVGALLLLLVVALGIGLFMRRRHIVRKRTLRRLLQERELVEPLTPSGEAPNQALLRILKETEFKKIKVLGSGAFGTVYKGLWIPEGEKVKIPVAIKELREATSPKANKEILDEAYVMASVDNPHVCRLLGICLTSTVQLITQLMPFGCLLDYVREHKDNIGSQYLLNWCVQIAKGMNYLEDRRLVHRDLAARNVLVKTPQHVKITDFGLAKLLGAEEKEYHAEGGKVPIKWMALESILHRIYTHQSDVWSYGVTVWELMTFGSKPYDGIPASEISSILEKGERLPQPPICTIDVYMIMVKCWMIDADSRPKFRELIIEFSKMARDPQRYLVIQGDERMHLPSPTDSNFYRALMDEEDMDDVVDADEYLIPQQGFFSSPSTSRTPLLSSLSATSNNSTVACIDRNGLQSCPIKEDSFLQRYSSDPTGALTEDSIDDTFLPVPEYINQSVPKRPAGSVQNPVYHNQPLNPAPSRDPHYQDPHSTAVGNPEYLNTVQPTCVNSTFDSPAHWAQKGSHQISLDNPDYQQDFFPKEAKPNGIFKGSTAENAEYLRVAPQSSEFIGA

`C=CC(=O)N1CCC[C@@H](c2nn(-c3ccc(Oc4cccc(F)c4F)cc3)c3cncc(F)c23)C1` (single isomer, unassigned) [Compound 5A] was tested, and the IC50 [1, 5] was 31.8 nM.

In the case of `C=CC(=O)N1CCC[C@H](c2nn(-c3ccc(Oc4cc(F)cc(F)c4F)cc3)c3cncc(F)c23)C1` (single isomer, unassigned) [Compound 4B], the IC50 [1, 5] is reported as 98.1 nM.

In the case of `C=CC(=O)N1CCO[C@@H](c2nn(-c3ccc(Oc4c(F)cccc4F)cc3)c3cncc(F)c23)C1` [Compound 3A], the IC50 [1, 5] is reported as 9.58 nM.

`C=CC(=O)N1CCO[C@H](c2nn(-c3ccc(Oc4c(F)cccc4F)cc3)c3cncc(F)c23)C1` [Compound 3B] gave an IC50 [1, 5] of 2.7 nM.

With `C=CC(=O)N1CCC[C@@H](c2nn(-c3ccc(Oc4cc(F)cc(F)c4F)cc3)c3cncc(F)c23)C1` (single isomer, unassigned) [Compound 4A] the IC50 [1, 5] was 11 nM, the IC50 ([1]; Table 2 comparison) was 11 nM and the “The ratio of the activities of EGFR and BTK” value [2] was 183 fold. The IC50 [2] was 2020 nM, the “The ratio of the activities of ITK and BTK” value [3] was over 909 fold and the IC50 ([3]; unit μM) was over 10 µM. For the same compound, the “The ratio of the activities of TEC and BTK” value [4] was “fold, 15-fold” and the IC50 [4] was 169 nM.

With `C=CC(=O)N1CCC[C@H](c2nn(-c3ccc(Oc4cc(F)ccc4F)cc3)c3cncc(F)c23)C1` [Compound 6B] the IC50 [1, 5] was 140 nM.

`C=CC(=O)N1CCC[C@@H](c2nn(-c3ccc(Oc4cc(F)ccc4F)cc3)c3cncc(F)c23)C1` [Compound 6A] was tested, and the IC50 [1, 5] was 9.58 nM, the IC50 ([1]; Table 2 comparison) was 9.58 nM and the “The ratio of the activities of EGFR and BTK” value [2] was 84 fold. The IC50 [2] was 812 nM, the “The ratio of the activities of ITK and BTK” value [3] was 764 fold and the IC50 ([3]; 120 minutes at room temperature) was 7.32 µM. For the same compound, the “The ratio of the activities of TEC and BTK” value [4] was 4-fold and the IC50 [4] was 43.2 nM.
